Test results published in US20180221369A1, “COMPOSITIONS AND METHODS FOR TREATING FIBROSING DISORDERS AND CANCER” (Cedars-Sinai Medical Center, priority 2014, published 2018).

Tests used:
[1] = system: chronic pancreatitis stellate cells (hCP); experiment: Transwell migration assay with SDF-1, chronic pancreatitis stellate cells; format: cell-based, human; conditions: SDF-1 0.025 μM, 2 h; siRNA 100 nM 48 h, AMD3100 5-50 μM or INNO-406 10-100 nM 60 minutes
Procedure: The migration assays were performed by using transwell migration assays with polycarbonate membrane inserts with 8 μm pore size that is optimal for fibroblast-like cell migration (Corning Incorporated, NY, cat #3422). Stellate cells were treated with siRNA (100 nM) for 48 h, or with increasing concentrations of AMD3100 (5 μM-50 μM) or INNO-406 (10 nM-100 nM) for 60 minutes. Then, cells were placed in the migration upper chambers, in the presence or absence of SDF-1 (0.025 μM) with 2% FBS in the lower chambers. After 2 h of incubation, cells migrated to the lower chamber were counted, and the chemotactic index was determined as follows:
(number of cells migrating to SDF-1 chemokine)/(number of cells migrating to medium alone)
To distinguish chemotaxis versus chemokinesis, a control checkerboard analysis was performed.

[2] = system: normal stellate cells (hNP); conditions: SDF-1 0.025 μM, 2 h, AMD3100 5-50 μM 60 minutes
[3] = system: cerulein-induced pancreatic fibrosis; experiment: Cerulein-induced pancreatic fibrosis (chronic pancreatitis) mouse model, Picro-Sirius Red quantitation; format: in vivo, C57BL/6J mice; conditions: cerulein plus 120 mg INNO-406/kg per day oral gavage for 6 weeks; cerulein alone 16.39+/−3.08%, untreated 2.00+/−0.84%
From the text: There is no optimal animal model available for human pancreatitis-induced fibrosis, to date. However, a most commonly used experimental model of chronic pancreatitis (CP) partially recapitulating human disease is repeated injection of cerulein into mice (Ulmasov, B. et al. Am J Pathol. 183, 692-708 (2013)). C57BL/6 is the most frequently used mouse strain for this type of biomedical research. In our current experiments, C57BL/6J mice (2 months old male and female) were divided into 3 groups (each group consisted of 15 animals) as follows: (1) untreated mice (saline only); (2) mice treated with cerulein for 6 weeks (50 μg/kg hourly, 6 hourly injections in one day constituted one treatment, twice-weekly); (3) mice treated with cerulein (as above) plus 120 mg INNO-406/kg per day for 6 weeks (oral gavage). When 120 mg INNO-406/kg per day is administrated orally to the mice, the concentration of INNO-406 in the soft tissues is estimated to be 0.24 μM according to pharmacokinetic studies described previously (Kimura, S. et al. Blood., 106, 3948-3954 (2005); Yokota, A, et al. Blood, 109, 306-314 (2007)). […] Picro sirius red quantitation were performed using Leica Biosystem Tissue IA Optimizer web-based program that measures positive stained intensity per area at 10× magnification. […]

[4] = 120 mg INNO-406/kg per day orally to mice; estimated according to previously described pharmacokinetic studies; cited from earlier work

| Compound | SDF-1/CXCR4-induced chemotaxis (chemotactic index) [1] | SDF-1/CXCR4-induced chemotaxis (chemotactic index) [2] | pancreatic fibrosis (Picro-Sirius Red positive stained area per total area) [3] | concentration of INNO-406 in the soft tissues [4] |
| --- | --- | --- | --- | --- |
| c1cc(CN2CCCNCCNCCCNCC2)ccc1CN1CCCNCCNCCCNCC1 [AMD3100] | could be blocked | could be blocked |  |  |
| Cc1ccc(NC(=O)c2ccc(CN3CC[C@H](N(C)C)C3)c(C(F)(F)F)c2)cc1Nc1nccc(-c2cncnc2)n1 [INNO-406, Bafetinib] |  |  | 7.50+/−4.77% | 240 nM |
